PubChem BioAssay (NCI)
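Here, GI50 denotes the concentration required for 50% inhibition of growth. Definition used: TGI = concentration required for complete inhibition of growth.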

Experiments:
Assay in all cases: DTP human tumour cell line panel, 384-well format
BT-549 breast = test system: BT-549 breast
MALME-3M melanoma = test system: MALME-3M melanoma
MDA-MB-468 breast = test system: MDA-MB-468 breast
NCI-H23 lung = test system: NCI-H23 lung
HCC-2998 colon = test system: HCC-2998 colon
A549 NSCLC = test system: A549 NSCLC
COLO 205 colon = test system: COLO 205 colon
NCI-H522 lung = test system: NCI-H522 lung
HCT-116 colon = test system: HCT-116 colon
RXF 393 renal = test system: RXF 393 renal
SNB-19 CNS = test system: SNB-19 CNS
UACC-257 melanoma = test system: UACC-257 melanoma
KM12 colon = test system: KM12 colon
CAKI-1 renal = test system: CAKI-1 renal
LOX IMVI melanoma = test system: LOX IMVI melanoma
A498 renal = test system: A498 renal
DU-145 prostate = test system: DU-145 prostate
RPMI-8226 leukemia = test system: RPMI-8226 leukemia
NCI-H460 NSCLC = test system: NCI-H460 NSCLC
NCI-H226 lung = test system: NCI-H226 lung
U251 glioblastoma = test system: U251 glioblastoma
MDA-MB-435 melanoma = test system: MDA-MB-435 melanoma
ACHN renal = test system: ACHN renal
SN12C renal = test system: SN12C renal
SK-MEL-5 melanoma = test system: SK-MEL-5 melanoma
MCF7 breast = test system: MCF7 breast
SR leukemia = test system: SR leukemia
HS 578T breast = test system: HS 578T breast
HL-60(TB) leukemia = test system: HL-60(TB) leukemia
UO-31 renal = test system: UO-31 renal
TK-10 renal = test system: TK-10 renal
SF-268 CNS = test system: SF-268 CNS
CCRF-CEM leukemia = test system: CCRF-CEM leukemia
SF-539 CNS = test system: SF-539 CNS
786-0 renal = test system: 786-0 renal
HOP-62 NSCLC = test system: HOP-62 NSCLC
OVCAR-3 ovarian = test system: OVCAR-3 ovarian
SNB-75 CNS = test system: SNB-75 CNS
EKVX NSCLC = test system: EKVX NSCLC
SK-MEL-28 melanoma = test system: SK-MEL-28 melanoma
NCI/ADR-RES ovarian = test system: NCI/ADR-RES ovarian
HCT-15 colon = test system: HCT-15 colon
SF-295 CNS = test system: SF-295 CNS
SW-620 colon = test system: SW-620 colon
MOLT-4 leukemia = test system: MOLT-4 leukemia
NCI-H322M lung = test system: NCI-H322M lung
MDA-MB-231 breast = test system: MDA-MB-231 breast
UACC-62 melanoma = test system: UACC-62 melanoma
PC-3 prostate = test system: PC-3 prostate
M14 melanoma = test system: M14 melanoma
T-47D breast = test system: T-47D breast
OVCAR-4 ovarian = test system: OVCAR-4 ovarian
IGROV1 ovarian = test system: IGROV1 ovarian
OVCAR-8 ovarian = test system: OVCAR-8 ovarian
SK-OV-3 ovarian = test system: SK-OV-3 ovarian
OVCAR-5 ovarian = test system: OVCAR-5 ovarian
HOP-92 NSCLC = test system: HOP-92 NSCLC

`CNC(=O)c1cc(Oc2ccc(NC(=O)Nc3ccc(Cl)c(C(F)(F)F)c3)c(F)c2)ccn1` was tested, and the GI50 (BT-549 breast) was 3.2 µM, the TGI (BT-549 breast) was 7.34 µM and the GI50 (MALME-3M melanoma) was 0.719 µM. It also gave a TGI (MALME-3M melanoma) of 3.09 µM, a GI50 (MDA-MB-468 breast) of 1.72 µM and a TGI (MDA-MB-468 breast) of 4.31 µM. It also gave a GI50 (NCI-H23 lung) of 1.34 µM, a TGI (NCI-H23 lung) of 3.43 µM and a GI50 (HCC-2998 colon) of 2.04 µM. For the same compound, the TGI (HCC-2998 colon) was 5.98 µM, the GI50 (A549 NSCLC) was 2.66 µM and the TGI (A549 NSCLC) was 8.57 µM. The GI50 (COLO 205 colon) was 1.64 µM, the TGI (COLO 205 colon) was 4.7 µM and the GI50 (NCI-H522 lung) was 2.83 µM. The TGI (NCI-H522 lung) was > 24.7 µM, the GI50 (HCT-116 colon) was 1.77 µM and the TGI (HCT-116 colon) was 8.6 µM. The GI50 (RXF 393 renal) was 2.49 µM, the TGI (RXF 393 renal) was 4.98 µM and the GI50 (SNB-19 CNS) was 4.65 µM. The TGI (SNB-19 CNS) was > 88.5 µM, the GI50 (UACC-257 melanoma) was 2.45 µM and the TGI (UACC-257 melanoma) was 9.07 µM. For the same compound, the GI50 (KM12 colon) was 3.03 µM, the TGI (KM12 colon) was 15.5 µM and the GI50 (CAKI-1 renal) was 2.67 µM. It also gave a TGI (CAKI-1 renal) of 7.59 µM, a GI50 (LOX IMVI melanoma) of 1.39 µM and a TGI (LOX IMVI melanoma) of 3.99 µM. For the same compound, the GI50 (A498 renal) was 3.66 µM, the TGI (A498 renal) was 21.7 µM and the GI50 (DU-145 prostate) was 3.02 µM. It also gave a TGI (DU-145 prostate) of 9.32 µM, a GI50 (RPMI-8226 leukemia) of 1.73 µM and a TGI (RPMI-8226 leukemia) of 3.3 µM. For the same compound, the GI50 (NCI-H460 NSCLC) was 3.08 µM, the TGI (NCI-H460 NSCLC) was 10.7 µM and the GI50 (NCI-H226 lung) was 1.93 µM. For the same compound, the GI50 (U251 glioblastoma) was 3.06 µM, the TGI (U251 glioblastoma) was 11 µM and the GI50 (MDA-MB-435 melanoma) was 3.14 µM. For the same compound, the TGI (MDA-MB-435 melanoma) was 14.6 µM, the GI50 (ACHN renal) was 3.38 µM and the TGI (ACHN renal) was 25.1 µM. For the same compound, the GI50 (SN12C renal) was 3.16 µM, the TGI (SN12C renal) was 11 µM and the GI50 (SK-MEL-5 melanoma) was 1.6 µM. The TGI (SK-MEL-5 melanoma) was 3.86 µM, the GI50 (MCF7 breast) was 1.93 µM and the TGI (MCF7 breast) was 5.47 µM. For the same compound, the GI50 (SR leukemia) was 1.47 µM, the TGI (SR leukemia) was 2.82 µM and the GI50 (HS 578T breast) was 2.33 µM. The TGI (HS 578T breast) was 7.35 µM, the GI50 (HL-60(TB) leukemia) was 0.734 µM and the TGI (HL-60(TB) leukemia) was 1.97 µM. It also gave a GI50 (UO-31 renal) of 2.02 µM, a TGI (UO-31 renal) of 5.44 µM and a GI50 (TK-10 renal) of 3.49 µM. It also gave a TGI (TK-10 renal) of 76.2 µM, a GI50 (SF-268 CNS) of 4.28 µM and a TGI (SF-268 CNS) of 14.4 µM. For the same compound, the GI50 (CCRF-CEM leukemia) was 3.4 µM, the TGI (CCRF-CEM leukemia) was 8.05 µM and the GI50 (SF-539 CNS) was 2.13 µM. It also gave a TGI (SF-539 CNS) of 6.63 µM, a GI50 (786-0 renal) of 2.47 µM and a TGI (786-0 renal) of 7.76 µM. It also gave a GI50 (HOP-62 NSCLC) of 2.98 µM, a TGI (HOP-62 NSCLC) of 10.1 µM and a GI50 (OVCAR-3 ovarian) of 4.55 µM. For the same compound, the TGI (OVCAR-3 ovarian) was 12.6 µM, the GI50 (SNB-75 CNS) was 5.14 µM and the TGI (SNB-75 CNS) was 12.9 µM. The GI50 (EKVX NSCLC) was 2.12 µM, the TGI (EKVX NSCLC) was 5.43 µM and the GI50 (SK-MEL-28 melanoma) was 1.39 µM. For the same compound, the TGI (SK-MEL-28 melanoma) was 8.75 µM, the GI50 (NCI/ADR-RES ovarian) was 2.06 µM and the TGI (NCI/ADR-RES ovarian) was 5.1 µM. For the same compound, the GI50 (HCT-15 colon) was 2.52 µM, the TGI (HCT-15 colon) was 9.38 µM and the GI50 (SF-295 CNS) was 2.13 µM. The TGI (SF-295 CNS) was 6.02 µM, the GI50 (SW-620 colon) was 2.97 µM and the TGI (SW-620 colon) was 13.9 µM. It also gave a GI50 (MOLT-4 leukemia) of 1.7 µM, a TGI (MOLT-4 leukemia) of 3.2 µM and a GI50 (NCI-H322M lung) of 2.66 µM. It also gave a TGI (NCI-H322M lung) of 6.21 µM, a GI50 (MDA-MB-231 breast) of 1.35 µM and a TGI (MDA-MB-231 breast) of 3.47 µM. For the same compound, the GI50 (UACC-62 melanoma) was 2.09 µM, the TGI (UACC-62 melanoma) was 7.66 µM and the GI50 (PC-3 prostate) was 3.79 µM. For the same compound, the TGI (PC-3 prostate) was 16.3 µM, the GI50 (M14 melanoma) was 1.69 µM and the TGI (M14 melanoma) was 8.56 µM. For the same compound, the GI50 (T-47D breast) was 1.56 µM, the TGI (T-47D breast) was 6.73 µM and the GI50 (OVCAR-4 ovarian) was 2.55 µM. It also gave a TGI (OVCAR-4 ovarian) of 7.25 µM, a GI50 (IGROV1 ovarian) of 2.8 µM and a TGI (IGROV1 ovarian) of 14.5 µM. It also gave a GI50 (OVCAR-8 ovarian) of 2.17 µM, a TGI (OVCAR-8 ovarian) of 5.79 µM and a GI50 (SK-OV-3 ovarian) of 3.2 µM. It also gave a TGI (SK-OV-3 ovarian) of 9.43 µM, a GI50 (OVCAR-5 ovarian) of 5.79 µM and a TGI (OVCAR-5 ovarian) of 28.5 µM. The GI50 (HOP-92 NSCLC) was 2.27 µM and the TGI (HOP-92 NSCLC) was 5.43 µM.
